Test results reported in EP4512806A1, “MOLECULAR GLUE DEGRADERS AND USES THEREOF” (Mablink Bioscience, priority 2023, dated 2025).

How the values were obtained:
[1] = system: panel of human cancer cell lines; assay: In vitro cytotoxicity assay (MTT), panel of cell lines; format: cell-based
Source text: Human cancer cell lines used in the present project were purchased from either the American Type Culture Collection (ATCC), The Leibniz Institute DSMZ German Collection of Microorganisms and Cell Cultures GmbH (DSMZ) or the European Collection of Authenticated Cell Cultures (ECACC). For use in experiments, cells were cultivated following good and established cell culture practices, following instructions from the original ATCC/DSMZ/ECACC supplier for cell culture media & supplement, cryopreservation, and subculturing procedures. Cells were incubated under a 5% CO2 atmosphere at 37°C for no longer than 2 months.
In vitro cytotoxicity of compounds of the disclosure was assessed on several cancerous human cell lines. Cells were plated in 96-well plates at an appropriate density depending on the cell line (between 1000 and 10 000 cells/well in 100µL of appropriate culture media) and incubated at 37°C for 24 hours. Serial dilutions of the tested compound previously dissolved in culture media (50µL) were added, and incubation was carried at 37°C out for 6 days. MTT (5mg/mL in PBS, 20µL, Sigma-Aldrich) was added into the wells, and incubation was continued for 1 to 4 hours at 37°C. Culture media was then carefully removed, and well content was homogeneously dissolved with acidified isopropanol. Absorbance values were measured on a microplate reader using a wavelength of 570 nm (with a reference wavelength of 690 nm). The IC50 concentration values compared to untreated control cells were determined using inhibition dose response curve fitting (GraphPad Prism 9). Exatecan mesylate (cat#HY-13631A) and CR8 (CAS# 294646-77-8; cat#HY-18340) were purchased from MedChemExpress (China).

JIMT-1 cells = assay: Cell cycle arrest assessment (propidium iodide, flow cytometry); format: cell-based, human; conditions: 24h, 2, 5, 10, and 50nM
Protocol: 1×10^6 JIMT-1 cells were plated in 3mL of DMEM/FBS 90:10 (v/v) in 6-well plates and incubated overnight. Cells were treated with the compound 2384 of the invention or with CR8 for 24h. Cells were then harvested and washed three times with PBS. Cells were suspended into 300µL of propidium iodide working solution (0.05mg/mL) and incubated for 45 minutes at 4°C in the dark. Analysis was performed using a BD Fortessa flow cytometer controlled by BD FACSDiva software (BD Biosciences) and data were analyzed using FlowJo software (BD Bioscience).

N[C@H]1CC[C@H](Nc2nc(NCc3ccc(-c4ccccn4)cc3)n3ncc(Br)c3n2)CC1 [Compound 2384]
in vitro cytotoxic potency ([1]; panel of human cancer cell lines, in words): low nanomolar potencies | cytotoxic potency compared to isopropyl counterpart ([1]; side-by-side comparison, Figures 1A/1B and 2A/2B): systematically more potent | cell cycle analysis (propidium iodide) (JIMT-1 cells): arrest in the G2/M phase
